According to US6770649B2, “1-[1-(hetero)aryl-1-perhydroxyalkylmethyl]-piperazine compounds, process for their preparation and pharmaceutical compositions containing them” (Solvay Pharmaceuticals GmbH, priority 2001, dated 2004):
Where two headings read alike, the source gives them in different places.

Columns and labels:
NK-2 receptors [1] = target: T1, NK-2 receptors (Cavia porcellus, UniProt Q64077); experiment: Functional NK-2 antagonism on isolated guinea pig gall-bladder preparations (NKA-induced contraction); format: cell-based; details: inhibition of contraction caused by NKA 0.1 μmol/l; two hours' incubation; Pirbright-White guinea pig gall-bladder
T1 construct: the NK-2 receptors present in the gall-bladder preparations; from tissue; host or cells: Pirbright-White guinea pig: isolated gall-bladder (A2); anaesthetised whole animal (A3)
T1 sequence (Q64077 1-402): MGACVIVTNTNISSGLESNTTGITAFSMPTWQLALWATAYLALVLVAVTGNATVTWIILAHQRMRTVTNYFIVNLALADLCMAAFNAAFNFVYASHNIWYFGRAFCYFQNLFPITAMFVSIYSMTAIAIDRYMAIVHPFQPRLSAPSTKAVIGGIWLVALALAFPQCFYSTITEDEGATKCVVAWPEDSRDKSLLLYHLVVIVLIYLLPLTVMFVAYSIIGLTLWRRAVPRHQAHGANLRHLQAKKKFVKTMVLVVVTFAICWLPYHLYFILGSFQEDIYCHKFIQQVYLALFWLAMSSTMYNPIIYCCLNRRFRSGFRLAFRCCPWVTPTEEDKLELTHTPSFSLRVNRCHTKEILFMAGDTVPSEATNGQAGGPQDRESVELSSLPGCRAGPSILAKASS
Experimental: 2. Determination of the Functional Antagonism of the Test Substances on Isolated Guinea Pig Tissue in vitro
The NK-2 receptor-antagonising action of the test substances was determined on isolated gall-bladder preparations from Pirbright-White guinea pigs, held in an oxygen-saturated nutrient solution. To this end, the preparations were fastened on one hand in the nutrient solution to organ holders and on the other hand on a force meter by a thread.
In this test the NK-2 receptors present in the gall-bladder preparations were stimulated with the natural NK-2 receptor agonist neurokinin A (=NKA; 0.1 μmol/l) and the contractions of the preparations caused thereby were measured as contractility in mN (=preliminary value) measured. Then NKA was rinsed out of the preparations with NKA-free solution and the test substances were added in a concentration of 10^−7 mol/l. After two hours' incubation of the preparations with the test substances, the contractions of the preparations then still caused by renewed NKA addition were again measured and the results were given as percentages, relative to the contractions initially measured, caused solely by NKA addition. The concentration of the test substances was increased iteratively in the subsequent experiments as a function of the result in logarithmic whole or half steps, until at least one concentration above or below 50% inhibition of contraction was determined (up to at most 10^−5 mol/l). For each concentration, the average value of inhibition of contraction was calculated from 2 to 4 preparations. In each case, the concentration of half-maximum inhibition (IC50) per test substance was calculated as characteristic variable. In each case the logarithmised value of the IC50 per test substance is given as pIC50 in [mol/l].

human NK-2 receptor = target: T2, human NK-2 receptor (Homo sapiens, UniProt P21452); experiment: Binding power of the test substances to NK-2 receptors in vitro ([3H]-SR 48968 displacement, CHO cell membranes); details: displacement of [3H]-SR 48968, 90 min incubation, average of at least three measurements, 10^-6 to 10^-10 mol/l, read-out: pKi, affinity to human NK-2 receptors (converted)
T2 construct: expressed in transfected cells; host or cells: CHO cells (membrane preparation)
T2 sequence (P21452 1-398): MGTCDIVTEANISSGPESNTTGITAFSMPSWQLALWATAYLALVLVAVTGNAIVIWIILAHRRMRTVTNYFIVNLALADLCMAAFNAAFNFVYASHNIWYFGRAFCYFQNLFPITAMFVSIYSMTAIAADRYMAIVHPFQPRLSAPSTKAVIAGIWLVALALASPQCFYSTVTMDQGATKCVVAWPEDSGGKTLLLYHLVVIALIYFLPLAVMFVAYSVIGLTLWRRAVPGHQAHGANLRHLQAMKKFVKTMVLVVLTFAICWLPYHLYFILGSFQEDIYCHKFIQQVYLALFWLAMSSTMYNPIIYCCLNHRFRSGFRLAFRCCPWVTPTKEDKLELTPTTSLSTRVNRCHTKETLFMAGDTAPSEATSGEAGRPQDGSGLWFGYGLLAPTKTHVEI
Experimental: 1. Determination of the Binding Power of the Test Substances to NK-2 Receptors in vitro
The affinity of the test substances to human NK-2 receptors was measured in vitro. The ability of the test substances to displace the selective NK-2 receptor antagonist SR 48968 (=saredutant) used as reference ligand from its corresponding bond was determined.
The receptor binding studies were carried out with radioactively marked [^3H]-SR 48968 (from Amersham) as ligand. For the binding test, different samples of a membrane preparation of CHO cells (=[…]), which express the human NK-2 receptor (for preparation, see N. P. Gerard et al., Journal of Biological Chemistry 265/33 (1990) 20455-20462), were incubated for 90 minutes (=min.) with a solution of the marked ligand, with the incubation mixtures containing no test substance or additions of different concentrations of test substance. Then in each case the membrane-bound ligands in the samples were separated from free ligands by filtration. The fraction remaining in the filter was washed several times with buffer solution, before its radioactivity was measured using a liquid scintillation counter. That concentration which effects half-maximum displacement of the bound reference ligand was determined as IC50 of the respective test substance. The inhibition constant (Ki value) of the test substance was calculated from the respective IC50 value, and was stated as the negative logarithmised value thereof (pKi).
For the compounds of Examples 1 to 39, the affinity to human NK-2 receptors was determined in each case by at least three measurements of the test substances in concentration series of 10^−6 to 10^−10 mol/l. If several measurements were performed, the average thereof was listed each time.

NK-2 receptors [2] = target: T1, NK-2 receptors; experiment: NK-2-receptor-antagonistic effectiveness in vivo in anaesthetised guinea pigs (NKA test stimulus); design: species or system guinea pig; details: for ED50: guinea pig
Excerpt: 3. Determination of the NK-2-receptor-antagonistic Effectiveness of the Test Substances in vivo
The NK-2- and NK-1-antagonistic activities of the test substances were investigated in anaesthetised guinea pigs in each case after intravenous (=i.v.) and oral (=p.o.) administration in vivio. With the present test model it is possible to detect both NK-2-antagonistic effects in three different organ systems (respiratory tracts, colon and circulation) and NK-1-antagonistic effects (rapid drop in blood pressure) in an animal simultaneously.
Pirbright-White guinea pigs of a body weight of 500-700 g were anaesthetised with ketamine/xylazine (67/13 mg/kg subcutaneously, initial dose, further doses administered as required). The animals were provided with an intravenous catheter in order to administer the substance and an intra-arterial catheter to measure the blood pressure. The animals were artificially ventilated via a tracheal cannula and the respiratory pressure was recorded by means of a pressure transducer. A balloon was introduced into the distal colon of the animals for manometric recording of colon motility by means of a pressure transducer. Blood pressure, heart rate, respiratory pressure and colonic pressure were measured continuously for each animal and plotted on a recorder and by means of a digital data-processing system. Neurokinin A (=NKA; 200 pmol/animal) was administered i.v. as a bolus as a test stimulus to stimulate the NK-1- and the NK-2 receptors. An addition of NKA of this type results in a great increase in respiratory pressure (bronchoconstriction) and colonic pressure, and in a biphasic drop in blood pressure. The first phase of hypotension (=phase of maximum hypotension within the first minute after administration of NKA) is mediated via NK-1 receptors, since they can be blocked completely by specific NK-1 receptor antagonists. The second phase of delayed hypotension (=phase of maximum hypotension after 2-5 min.) on the other hand is mediated via NK-2 receptors, since they can be blocked by specific NK-2 receptor antagonists. The doses of the test substances are given as ED50 values which each result in a response to the NKA test stimulus which is reduced to 50% of the initial value, as characteristic variables for the individual measurement parameters bronchoconstriction, colonic pressure and change in blood pressure mediated by NK-1 or NK-2.
The antagonistic effects of the test substances were first investigated in cumulative form, the time of the NKA test stimulus being 1 min. after the administration of the respective doses of the test substances had ended. These ED50 values obtained from cumulative dose effect curves are plotted in Table 2 below. In order additionally to detect the variation over time of the antagonistic effects of the test substances, the action of the NKA test stimulus was determined at different times (1, 30, 60, 90, 120, 150 and 180 min.) after administration of the test substances.

Row | IC50 (NK-2 receptors [1]) [nM] | Ki (human NK-2 receptor) [nM] | ED50 (NK-2 receptors [2]; iv, cumulative dosing, NKA stimulus 1 min. after administration, respiratory resistance (bronchoconstriction), read-out: ED50 Respiratory resistance, i.v. after 1 min. (cumulative)) [µmol/kg] | ED50 (NK-2 receptors [2]; iv, cumulative dosing, NKA stimulus (200 pmol/animal i.v.) 1 min. after administration, colonic pressure, read-out: ED50 Colonic pressure, i.v. after 1 min. (cumulative)) [µmol/kg] | ED50 (NK-2 receptors [2]; iv, from AUC of antagonistic effect over 120 min after administration, colonic pressure, read-out: ED50 Colonic pressure, i.v. AUC over 120 min) [µmol/kg] | ED50 (NK-2 receptors [2]; iv, from AUC over 120 min after administration, respiratory resistance, read-out: ED50 Respiratory resistance, i.v. AUC over 120 min) [µmol/kg] | ED50 (NK-2 receptors [2]; po, from AUC over 180 min after administration, colonic pressure, read-out: ED50 Colonic pressure, p.o. AUC over 180 min.) [µmol/kg] | ED50 (NK-2 receptors [2]; po, from AUC over 180 min after administration, respiratory resistance, read-out: ED50 Respiratory resistance, p.o. AUC over 180 min.) [µmol/kg] | Structure (SMILES) | NK-2-receptor-antagonistic activity of colon motility, late drop in blood pressure and respiratory resistance (in words) (NK-2 receptors [2]; cumulative administration i.v., antagonism detected 1 min. after administration had ended) | ED50 (NK-2 receptors [2]; iv, cumulative dosing, NKA stimulus 1 min. after administration, NK-2-mediated late drop in blood pressure, read-out: ED50 Blood pressure, i.v. after 1 min. (cumulative)) [µmol/kg] | ED50 (NK-2 receptors [2]; iv, from AUC over 120 min after administration, NK-2-mediated drop in blood pressure, read-out: ED50 Blood pressure, i.v. AUC over 120 min) [µmol/kg] | ED50 (NK-2 receptors [2]; po, from AUC over 180 min after administration, NK-2-mediated drop in blood pressure, read-out: ED50 Blood pressure, p.o. AUC over 180 min.) [µmol/kg]
1 | 0.2 | ≤ 10 | – | – | – | – | – | – | CN(CC(CCN1CCN(C(c2ccsc2)[C@@H](O)[C@H](O)[C@H](O)CO)CC1)c1ccc(Cl)c(Cl)c1)C(=O)c1ccccc1 (mixture of isomers) [Example 17] | – | – | – | –
2 | 0.251 | ≤ 10 | – | – | – | – | – | – | CN(CC(CCN1CCN(C(c2ccsc2)[C@H](O)[C@@H](O)[C@H](O)CO)CC1)c1ccc(Cl)c(Cl)c1)C(=O)c1ccccc1 (mixture of isomers) [Example 7] | – | – | – | –
3 | 0.501 | ≤ 10 | – | – | – | – | – | – | CN(CC(CCN1CCN(C(c2ccsc2)[C@@H](O)[C@@H](O)[C@H](O)CO)CC1)c1ccc(Cl)c(Cl)c1)C(=O)c1ccccc1 (mixture of isomers) [Example 9] | – | – | – | –
4 | – | ≤ 10 | 0.079 | 0.041 | 0.009 | 0.042 | 4.5 | 3.2 | CN(C[C@@H](CCN1CCN(C(c2ccsc2)[C@H](O)[C@H](O)CO)CC1)c1ccc(Cl)c(Cl)c1)C(=O)c1ccccc1 (stereo partly drawn) [Example 15, N-((2S)-2-(3,4-dichlorophenyl)-4-{4[(2S,3R)-2,3,4-trihydroxy-1-(3-thienyl)butyl]-1-piperazinyl}-butyl)-N-methylbenzamide] | marked NK-2-receptor-antagonistic activity | 0.114 | 0.047 | 8.6
